Laboratory results taken from patent publication US20230003721A1, “MITOTHERAPEUTICS FOR THE TREATMENT OF BRAIN DISORDERS” (The University of Florida Research Foundation, Inc., priority 2019, published 2023).
Counter-ions that a name gives are not always drawn.

Tests used:
[1] = tested on: primary forebrain neurons; test: cells; details: 12.5 μM; for Dendritic Mt CA / Neurite Area: rescreen, 24 h, vs DMSO wells
Experimental: Primary forebrain cell culture and maintenance. Forebrains of P0 Mt or Mt/Ai14 pups without olfactory bulbs and meninges were collected and placed in ice cold Ca^2+ and Mg^2+ free HBSS supplemented with 2 μg/ml gentamicin, 25 mM D-glucose, 1 mM pyruvate and 20 mM HEPES. Brain tissue was digested with 0.6 mg/ml papain at 37° C. for 20 min. Forebrains were washed with plating media [Neurobasal (Gibco), 5% FBS, 4 mM GlutaMAX (Gibco), 2 μg/ml gentamicin]. The tissue was gently triturated, allowed to settle and the supernatant was filtered through a 40 μm mesh-sized cell strainer. Cells were centrifuged at 420×g for 4 min and resuspended in plating media. 15,000 cells per well were plated with 2×10^8 viral particles/ml onto black Greiner μClear (Cat #781946) or Ultra-Low Base Aurora with evaporation barrier (Cat #ABE201201B) 384-well plates (80 μl/well) pre-coated with poly-D-lysine for the primary screen and rescreen, respectively. Plating and media changes were performed using an automated Biomek FX^P liquid handling workstation. Four hr after plating, 75% of the plating media was replaced by feeding media [Neurobasal-A (Gibco), 4 mM GlutaMAX (Gibco), 2 μg/ml gentamicin, 2% B27 (Gibco)]. At DIV4, 50% of the media was exchanged with fresh feeding media supplemented with 16 μM 5-Fluoro-2′-deoxyuridine (FUdR) to prevent glial cell over-growth. At DIV8 and DIV12, additional 50% media changes were made without FUdR. Cells were maintained at 37° C. and 5% CO2; plates were topped with Breathe-Easy adhesive membranes (Greiner plates) to minimize evaporation.
Compounds and compound transfer.
Imaging. Images were captured using a GE Incell 6000 system (60× objective, 0.95 NA, 16-bit images) equipped with environmental control (37° C., 5% CO2). Mt-GFP (green channel) was imaged by confocal imaging (3 slices, Δz=0.7 μm, aperture=1.0 AU, λexc=488 nm, λem=515-535 nm). Cyto-tdTomato (red channel) and MitoTracker Orange (red channel) were imaged using confocal mode (3 slices, Δz=0.7 μm, aperture=1.0 AU, λexc=561 nm, λem=569-641 nm, MitoTracker Orange) or with widefield mode (Cyto-tdTomato). TMRM imaged for the co-localization experiments with Mt-GFP was imaged using the confocal mode (3 slices, […] aperture=1.0, λexc=488, λem=569-641 nm). For the live-dead assay, primary neurons were imaged with a 20× (widefield mode, NA 0.45) objective using λexc=561 nm and λem=569-641 nm for the propidium iodide stained dead cells (red channel), and λexc=488 nm and λem=515-535 nm for the fluorescein diacetate stained live cells (green channel). 10 fields were collected from each well, and 4 wells were imaged/condition in the live-dead assay. For all other experiments, 4 fields/well were imaged unless otherwise stated.
Automated data analysis pipeline. Most experiments utilized only Mt-GFP; some utilized both Mt-GFP and Cyto-tdTomato. The Z-projected images were preprocessed using a custom Fiji macro. For preprocessing of Mt-GFP images: background was subtracted (rolling ball, radius=3), images were median filtered (radius=1) and somatic mitochondria were removed. For removal of the somatic mitochondria, they were first segmented and then a somatic mitochondrial mask overlaid on the image.

primary neurons [2] = test: TMRM fluorescence assay of inner mitochondrial membrane potential (ΔΨm); details: for TMRM Primary: primary screen; for TMRM Primary / TMRM Rescreen: 24 h; for Emax / EC50: Mus musculus, Primary neuron; for Emax: read-out: TMRM (Effect-size); for EC50: read-out: TMRM-EC50
primary neurons [3] = test: CellTiter-Glo luminescence-based ATP assay; format: cell-based, mouse; details: for ATP: ATP orthogonal screen, 24 h; for EC50 / Emax: Mus musculus, Primary neuron, dose response; for EC50: 15 concentrations from 6 nM to 100 uM; for Emax: maximal percent increase relative to in-plate DMSO controls, read-out: ATP (Effect-size)
Summary of the method: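 Primary neurons treated from DIV13 for 24 h with compound or DMSO. After part of the medium was removed, CellTiter-Glo reagent was added; plates were shaken 10 min at 200 rpm, kept 2 min in the dark at room temperature, and luminescence read as total ATP.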

primary neurons [4] = test: Mitochondrial morphology and neurite area after functional modulators; format: cell-based, mouse; parameters: key to Neurite Area: non-significant (n.s.); details: significant change
Experimental: Mitochondrial morphology and neurite area measurements. Mitochondrial morphology and neurite area were quantified using methods described by Varkuti et al, 2020. Briefly, Cre-dependent mitochondrial targeted GFP2 (mito-GFP) ROSA26 knock-in mice were crossed with Ai14 (007908, The Jackson Laboratory) expressing cytosolic-tdTomato, and the forebrain of P0 pups were isolated and primary neurons were cultured as described above. AAV9 virus containing the iCRE sequence driven by the neuron specific CaMKII promoter was added to the cell culture at plating and 75% of the media replaced 4 h after plating. […] Z-projected images of the green channel were preprocessed (background subtraction: rolling ball, radius=3; median filtering: radius=1) and somatic mitochondria were removed (see details in Varkuti et al, Science Advances 6 (2020) eaaw8702). Red channel images were also preprocessed (tubeness filter, soma removal). Preprocessed images were segmented by GE Developer software (object-based, kernel size: 3). […] The length and circularity measurements for mitochondria were aggregated using the median and the area for neurites using the sum. After removing empty fields and outlier values from the fields, aggregated field values were averaged to well values (4 fields/well, 12 wells/compound). Robust Z-scores were calculated using DMSO-treated wells for each well ((mediancompound−medianDMSO)/median absolute deviationDMSO), well values were averaged for each compound.
A high-content assay was developed in parallel to monitor aspects of mitochondrial dynamics in primary cultured neurons that conditionally express (Cre recombinase dependent) mitochondrial-tagged GFP and cytosolic tdTomato reporters (Varkuti et al., 2020). We monitored two aspects of neuritic mitochondrial dynamics: (1) the health of mitochondria as measured by the average circularity of axonal mitochondria, since defective mitochondria targeted for mitophagy become circular in shape, and (2) the balance between fission/fusion measured by the average length of dendritic mitochondria. […] FIG. 19A illustrates the results of surveying a collection of functional modulators selected from 5 different structural clusters (FIG. 17), quantified as robust z-scores relative to DMSO-treated control neurons.

Row | Molecule | Dendritic Mt CA [1] | Neurite Area [1] | TMRM Primary (primary neurons [2]; 12.5 μM) | TMRM Rescreen (primary neurons [2]) | ATP (primary neurons [3]) | other results
1 | Cc1ccc([C@@H]2O[C@H](CO)[C@@H](O)[C@H](O)[C@H]2O)cc1Cc1ccc(-c2ccc(F)cc2)s1 [CANAGLIFLOZIN] | 2.93 robust Z-scores | 0.74 robust Z-scores | 4.55 Z-scores | 6.36 Z-scores | 3.13 Z-scores | –
2 | Clc1ccc(Cn2c(CN3CCCC3)nc3ccccc32)cc1 [CLEMIZOLE HYDROCHLORIDE] | 2.54 robust Z-scores | −0.66 robust Z-scores | 3.54 Z-scores | 5.90 Z-scores | 4.16 Z-scores | –
3 | CN1CCN(C(c2ccccc2)c2ccccc2)CC1 [CYCLIZINE] | 2.82 robust Z-scores | −0.03 robust Z-scores | 3.41 Z-scores | 5.91 Z-scores | 5.18 Z-scores | –
4 | COC(=O)C[C@H]1C(C)(C)[C@@H](OC(C)=O)[C@@H]2CC3C4CC(=O)O[C@@H](c5ccoc5)[C@]4(C)CCC3[C@@]1(C)C2=O (some centres unmarked) [DIHYDROFISSINOLIDE] | 2.77 robust Z-scores | 4.24 robust Z-scores | 3.94 Z-scores | 4.61 Z-scores | 5.15 Z-scores | –
5 | CCCCCCOc1ccccc1C(N)=O [EXALAMIDE] | 2.43 robust Z-scores | 3.42 robust Z-scores | 3.39 Z-scores | 4.57 Z-scores | 6.10 Z-scores | –
6 | CN1CCOC(c2ccccc2)c2ccccc2C1 (centres unmarked) [NEFOPAM] | 3.74 robust Z-scores | −0.44 robust Z-scores | – | – | – | –
7 | CCN(CC)CCOCCOC(=O)C(CC)(CC)c1ccccc1.O=C(O)CC(O)(CC(=O)O)C(=O)O [OXELAIDIN CITRATE] | 2.59 robust Z-scores | −1.31 robust Z-scores | 4.27 Z-scores | 6.44 Z-scores | 2.73 Z-scores | –
8 | C#CCN(C)Cc1ccccc1 [PARGYLINE HYDROCHLORIDE] | 3.75 robust Z-scores | 2.51 robust Z-scores | – | – | – | –
9 | O=C(CCc1ccc(O)cc1)c1c(O)cc(O)cc1O [PHLORETIN] | 2.73 robust Z-scores | 1.23 robust Z-scores | – | – | – | –
10 | CN1CCC(=C2c3ccccc3Sc3ccccc32)CC1 [PIMETHIXENE MALEATE] | 2.57 robust Z-scores | −2.10 robust Z-scores | 3.95 Z-scores | 5.12 Z-scores | 4.56 Z-scores | –
11 | OC(CCN1CCCCC1)(c1ccccc1)c1ccccc1 [PRIDINOL METHANESULFONATE] | 2.86 robust Z-scores | 1.80 robust Z-scores | 5.88 Z-scores | 6.92 Z-scores | 5.46 Z-scores | Emax (primary neurons [2]): 20.6%; EC50 (primary neurons [2]): 3900 nM; EC50 (primary neurons [3]): 1650 nM; Emax (primary neurons [3]): 15.7%
12 | COc1ccc(CN(CCN(C)C)c2ccccn2)cc1 [PYRILAMINE MALEATE] | 2.65 robust Z-scores | 0.78 robust Z-scores | – | – | – | –
13 | COc1ccc(/C=C/c2cc(O)cc(O)c2)cc1 [RESVERATROL 4′-METHYL ETHER] | 3.68 robust Z-scores | 0.02 robust Z-scores | – | – | – | confirmation in the re-screen ([1]; 10 replicate plates): weak hits
14 | COc1ccc2c(c1O)-c1c(OC)c(OC)cc3c1[C@H](C2)N(C)CC3 [S-ISOCORYDINE (+)] | 2.82 robust Z-scores | 0.78 robust Z-scores | – | – | – | –
15 | O=C(O[C@H]1CN2CCC1CC2)N1CCc2ccccc2[C@@H]1c1ccccc1 [SOLIFENACIN SUCCINATE] | 5.06 robust Z-scores | 1.42 robust Z-scores | – | – | – | –
16 | Cc1cccc(N(C)C(=S)Oc2ccc3ccccc3c2)c1 [TOLNAFTATE] | 2.93 robust Z-scores | 1.01 robust Z-scores | – | – | – | –
17 | Cc1cccc(C)c1N=C1NCCCS1 [XYLAZINE] | 3.66 robust Z-scores | 0.40 robust Z-scores | – | – | – | –
18 | CCCCOc1cc(C(=O)OCCN(CC)CC)ccc1N [benoxinate hydrochloride] | – | – | 3.62 Z-scores | 6.64 Z-scores | 5.57 Z-scores | Emax (primary neurons [2]): 21%; EC50 (primary neurons [2]): 490 nM; EC50 (primary neurons [3]): 80 nM; Emax (primary neurons [3]): 21.4%; Mitochondrial Morphology (primary neurons [4]): elongated; Neurite Area (primary neurons [4]): n.s.
19 | Cc1ccc(-c2cc(C(F)(F)F)nn2-c2ccc(S(N)(=O)=O)cc2)cc1 [celecoxib] | – | – | 6.67 Z-scores | 4.72 Z-scores | 7.57 Z-scores | hit in TMRM primary screen when assayed at 4 h (primary neurons [2]; 12.5 μM, 4 h): celecoxib*; Emax (primary neurons [2]): 27.5%; EC50 (primary neurons [2]): 5180 nM; EC50 (primary neurons [3]): 490 nM; Emax (primary neurons [3]): 20.7%; Neurite Area (primary neurons [4]): n.s.
20 | AVOCATIN A | 4.14 robust Z-scores | 3.48 robust Z-scores | – | – | – | –
